Laboratory results reported in the supplement of paper PMC11451515.

Test system: NOMO1
Assay: cell viability relative to DMSO control; higher = less cytotoxic
Details: 48 h
Method in brief: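 NOMO1 or SEM (500 cells/well) or P12-Ichikawa (1000 cells/well) leukemia cells were adapted for at least four passages in each medium. They were seeded in 1536-well plates (5 μl) and pin-dosed with library compounds in DMSO over an 11-point threefold series, 47 μM to 0.79 nM. CellTiter-Glo One luminescence was read after 48 h at 37°C. Viability is the per-plate percentage relative to DMSO wells, with cell-free wells as background.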

[1] = HPLM + 10% dialyzed FBS, 0.000781 µM
[2] = HPLM + 10% dialyzed FBS, 0.00234 µM
[3] = HPLM + 10% dialyzed FBS, 0.00702 µM
[4] = HPLM + 10% dialyzed FBS, 0.0211 µM
[5] = HPLM + 10% dialyzed FBS, 0.0632 µM
[6] = HPLM + 10% dialyzed FBS, 0.19 µM
[7] = HPLM + 10% dialyzed FBS, 0.569 µM
[8] = HPLM + 10% dialyzed FBS, 1.71 µM
[9] = HPLM + 10% dialyzed FBS, 5.12 µM
[10] = HPLM + 10% dialyzed FBS, 15.4 µM
[11] = HPLM + 10% dialyzed FBS, 46.1 µM
[12] = RPMI 5 mM glucose + 10% FBS, 0.000781 µM
[13] = RPMI 5 mM glucose + 10% FBS, 0.00234 µM
[14] = RPMI 5 mM glucose + 10% FBS, 0.00702 µM
[15] = RPMI 5 mM glucose + 10% FBS, 0.0211 µM
[16] = RPMI 5 mM glucose + 10% FBS, 0.0632 µM
[17] = RPMI 5 mM glucose + 10% FBS, 0.19 µM
[18] = RPMI 5 mM glucose + 10% FBS, 0.569 µM
[19] = RPMI 5 mM glucose + 10% FBS, 1.71 µM
[20] = RPMI 5 mM glucose + 10% FBS, 5.12 µM
[21] = RPMI 5 mM glucose + 10% FBS, 15.4 µM
[22] = RPMI 5 mM glucose + 10% FBS, 46.1 µM
[23] = RPMI 5 mM glucose + 10% dialyzed FBS, 0.000781 µM
[24] = RPMI 5 mM glucose + 10% dialyzed FBS, 0.00234 µM
[25] = RPMI 5 mM glucose + 10% dialyzed FBS, 0.00702 µM
[26] = RPMI 5 mM glucose + 10% dialyzed FBS, 0.0211 µM
[27] = RPMI 5 mM glucose + 10% dialyzed FBS, 0.0632 µM
[28] = RPMI 5 mM glucose + 10% dialyzed FBS, 0.19 µM
[29] = RPMI 5 mM glucose + 10% dialyzed FBS, 0.569 µM
[30] = RPMI 5 mM glucose + 10% dialyzed FBS, 1.71 µM
[31] = RPMI 5 mM glucose + 10% dialyzed FBS, 5.12 µM
[32] = RPMI 5 mM glucose + 10% dialyzed FBS, 15.4 µM
[33] = RPMI 5 mM glucose + 10% dialyzed FBS, 46.1 µM

Row | SMILES | cell viability [1] | cell viability [2] | cell viability [3] | cell viability [4] | cell viability [5] | cell viability [6] | cell viability [7] | cell viability [8] | cell viability [9] | cell viability [10] | cell viability [11] | cell viability [12] | cell viability [13] | cell viability [14] | cell viability [15] | cell viability [16] | cell viability [17] | cell viability [18] | cell viability [19] | cell viability [20] | cell viability [21] | cell viability [22] | cell viability [23] | cell viability [24] | cell viability [25] | cell viability [26] | cell viability [27] | cell viability [28] | cell viability [29] | cell viability [30] | cell viability [31] | cell viability [32] | cell viability [33]
1 | CC(Cc1ccc(O)c(O)c1)(NN)C(=O)O (configuration not stated) | 104% | 109% | 102% | 103% | 117% | 113% | 107% | 99.3% | 115% | 121% | 92.3% | 114% | 118% | 113% | 126% | 115% | 103% | 105% | 109% | 112% | 110% | 106% | 114% | 106% | 129% | 128% | 123% | 106% | 103% | 99.8% | 116% | 106% | 94.7%
2 | O=C(O)CCNc1cc(N2CCc3ccccc3CC2)nc(-c2ccccn2)n1 | 111% | 133% | 115% | 138% | 140% | 123% | 111% | 116% | 117% | 94.5% | 75.9% | 121% | 105% | 107% | 111% | 104% | 128% | 115% | 106% | 116% | 105% | 92.9% | 121% | 123% | 124% | 128% | 127% | 121% | 136% | 111% | 117% | 97.3% | 96.1%
3 | CCC(=O)OC1CCC2C3CCC/4=C/C(=O)CC[C@@]4(C)C3CC[C@]12C (some centres not stated) | 89.8% | 112% | 128% | 120% | 122% | 118% | 130% | 136% | 136% | 129% | 135% |  |  |  |  |  |  |  |  |  |  |  |  |  |  |  |  |  |  |  |  |  | 
4 | CN[C@H]1[C@H](O[C@@H]2[C@H](O[C@@H]3[C@@H](O)[C@@H](O)[C@@H](NC(=N)N)[C@@H](O)[C@H]3NC(=N)N)O[C@H](C)[C@@]2(O)C=O)O[C@@H](CO)[C@@H](O)[C@H]1O | 117% | 115% | 118% | 111% | 130% | 120% | 101% | 96.1% | 89% | 66.9% | 23.7% | 109% | 113% | 112% | 109% | 112% | 104% | 103% | 111% | 96.6% | 101% | 26.1% | 106% | 107% | 103% | 113% | 114% | 105% | 102% | 109% | 105% | 87.1% | 26.2%
5 | OCCNC1CCCc2c1[nH]c1ccc(-c3ccccc3)cc21 (configuration not stated) | 81.8% | 93.5% | 106% | 105% | 117% | 112% | 109% | 105% | 104% | 87.1% | 11.2% | 93.4% | 103% | 109% | 105% | 111% | 96.5% | 109% | 110% | 100% | 98.6% | 14.7% | 83.7% | 97.4% | 106% | 105% | 111% | 99.4% | 104% | 96.3% | 105% | 88.6% | 22.7%
6 | CCCCOc1ccc(CC(=O)NO)cc1 | 122% | 124% | 114% | 121% | 101% | 104% | 104% | 109% | 107% | 95.4% | 85.3% | 101% | 110% | 122% | 99.3% | 97.4% | 118% | 108% | 108% | 96.1% | 97.2% | 81.2% | 107% | 123% | 116% | 126% | 109% | 111% | 109% | 103% | 95% | 94.7% | 86.9%
7 | CN1C2=CC(=O)/C(=N/NC(N)=O)C=C2CC1S(=O)(=O)[O-].[Na+] (configuration not stated) | 87% | 105% | 105% | 104% | 111% | 135% | 116% | 122% | 125% | 128% | 92.5% | 108% | 109% | 111% | 115% | 117% | 128% | 120% | 117% | 122% | 116% | 111% | 105% | 112% | 114% | 111% | 118% | 126% | 124% | 123% | 128% | 119% | 103%
8 | C=CC(=O)Nc1cccc(Oc2nc(Nc3ccc(N4CCN(C)CC4)cc3OC)ncc2Cl)c1 | 64.3% | 69.5% | 78.3% | 79.1% | 81.9% | 80.6% | 73.9% | 76.5% | 54.7% | 45.1% | 33.3% | 72.9% | 74.3% | 79.3% | 78.8% | 87.1% | 102% | 82.1% | 52.1% | 67.3% | 62.1% | 55.8% | 69.6% | 77.9% | 79.4% | 85.8% | 80.6% | 79.2% | 77.3% | 87.9% | 66.1% | 72.2% | 45.5%
